Results as given in patent US11274083B2, “Substituted thiophenyl uracils, salts thereof and the use thereof as herbicidal agents” (Syngenta Crop Protection AG, priority 2017, dated 2022).

Experiments:
Assay type in all cases: in vivo
[1] = system: Abutilon theophrasti; assay: Herbicidal action post-emergence, greenhouse pot test
Experimental: (§1) Seeds of mono- and dicotyledonous weed plants and crop plants were laid out in sandy loam soil in plastic or wood-fiber pots, covered with soil and grown under controlled growth conditions in a greenhouse. 2 to 3 weeks after sowing, the trial plants were treated at the one-leaf stage. The compounds of the invention formulated in the form of wettable powders (WP) or as emulsion concentrates (EC) were then sprayed onto the green parts of the plant as an aqueous suspension or emulsion with addition of 0.5% additive at a water application rate equivalent to 600 L/ha. After the trial plants had stood for about 3 weeks in the greenhouse, under optimal growth conditions, the effect of the preparations was scored visually by comparison with untreated controls. For example, 100% efficacy=plants have died, 0% efficacy=like control plants. Tables A1 to A16 below show the efficacies of selected compounds of the general formula (I) according to tables I.1 to I.50 on various harmful plants and an application rate corresponding to 80 g/ha or lower that were obtained by the aforementioned trial method.

[2] = system: Alopecurus myosuroides; assay: as above; conditions: scored visually after about 3 weeks vs untreated controls
Experimental: as §1

[3] = system: Amaranthus retroflexus; assay: as above
Experimental: as §1

[4] = system: Echinochloa crus-galli; assay: as above
Experimental: as §1

[5] = system: Lolium rigidum; assay: as above
Experimental: as §1

[6] = system: Matricaria inodora; assay: as above
Experimental: as §1

[7] = system: Pharbitis purpurea; assay: as above
Experimental: as §1

[8] = system: Polygonum convolvulus; assay: as above
Experimental: as §1

[9] = system: Setaria viridis; assay: as above
Experimental: as §1

[10] = system: Veronica persica; assay: as above
Experimental: as §1

[11] = system: Viola tricolor; assay: as above
Experimental: as §1

[12] = system: Oryza sativa; assay: Crop compatibility post-emergence, greenhouse pot test
Experimental: as §1, with “plants.” for “plants. Tables A1 to A16 below show the efficacies of selected compounds of the general formula (I) according to tables I.1 to I.50 on various harmful plants and an application rate corresponding to 80 g/ha or lower that were obtained by the aforementioned trial method.”
(§2) Crop plant compatibilities were also scored correspondingly.
(§3) The effects observed are reported here on selected crop plants by comparison, with the untreated controls (values in %).

[13] = system: Triticum aestivum; assay: as above
Experimental: as §1, with “plants.” for “plants. Tables A1 to A16 below show the efficacies of selected compounds of the general formula (I) according to tables I.1 to I.50 on various harmful plants and an application rate corresponding to 80 g/ha or lower that were obtained by the aforementioned trial method.”
as §2, §3

[14] = system: Zea mays; assay: as above
Experimental: as §1, with “plants.” for “plants. Tables A1 to A16 below show the efficacies of selected compounds of the general formula (I) according to tables I.1 to I.50 on various harmful plants and an application rate corresponding to 80 g/ha or lower that were obtained by the aforementioned trial method.”
as §2, §3

[15] = system: Digitaria sanguinalis; assay: Herbicidal action post-emergence, greenhouse pot test; conditions: application rate 20 g/ha
[16] = system: Stellaria media; assay: as above
Experimental: as §1

[17] = system: Abutilon theophrasti; assay: Herbicidal action pre-emergence, greenhouse pot test; conditions: application rate 320 g/ha
Source text: (§4) Seeds of mono- and dicotyledonous weeds and crop plants were laid out in plastic or organic plant pots and covered with soil. The compounds of the invention formulated in the form of wettable powders (WP) or as emulsion concentrates (EC) were then applied to the surface of the covering soil as an aqueous suspension or emulsion with addition of 0.5% additive at a water application rate equivalent to 600 L/ha. After the treatment, the pots were placed in a greenhouse and kept under good growth conditions for the test plants. After about 3 weeks, the efficacy of the preparations was scored visually as a percentage by comparison with untreated controls. For example, 100% efficacy=plants have died. 0% efficacy=like control plants. Tables B1 to B17 below show the efficacies of selected compounds of the general formula (I) according to tables I.1 to I.50 on various harmful plants and an application rate corresponding to 320 g/ha or lower that were obtained by the aforementioned trial method.

[18] = system: Amaranthus retroflexus; assay: as above
Source text: as §4

[19] = system: Avena fatua; assay: as above; conditions: application rate 320 g/ha
Source text: as §4

[20] = system: Echinochloa crus-galli; assay: as above; conditions: application rate 320 g/ha
Source text: as §4

[21] = system: Hordeum murinum; assay: as above; conditions: application rate 320 g/ha
Source text: as §4

[22] = system: Lolium rigidum; assay: as above; conditions: application rate 320 g/ha
Source text: as §4

[23] = system: Pharbitis purpurea; assay: as above; conditions: application rate 320 g/ha
Source text: as §4

[24] = system: Polygonum convolvulus; assay: as above; conditions: application rate 320 g/ha
Source text: as §4

[25] = system: Setaria viridis; assay: as above; conditions: application rate 320 g/ha
Source text: as §4

[26] = system: Stellaria media; assay: as above; conditions: application rate 320 g/ha
Source text: as §4

[27] = system: Veronica persica; assay: as above; conditions: application rate 320 g/ha
Source text: as §4

[28] = system: Viola tricolor; assay: as above; conditions: application rate 320 g/ha
Source text: as §4

[29] = system: Matricaria inodora; assay: as above; conditions: application rate 320 g/ha
Source text: as §4, with “according to tables I.1 to I.50 on various harmful plants and an application rate corresponding to 320 g/ha or lower that were obtained by the” left out

[30] = system: Alopecurus myosuroides; assay: as above; conditions: application rate 320 g/ha
Source text: as §4

CCC(Sc1cc(-n2c(=O)cc(C(F)(F)F)n(C)c2=O)c(F)cc1Cl)C(=O)OCC(C)(C)C(=O)OC (stereo not drawn) [I.2-32]
Abutilon theophrasti (Efficacy in %) ([1]; application rate 20 g/ha): 100%
Alopecurus myosuroides (Efficacy in %) ([2]; application rate 20 g/ha): 80%
Amaranthus retroflexus (Efficacy in %) ([3]; application rate 20 g/ha): 100%
Echinochloa crus-galli (Efficacy in %) ([4]; application rate 20 g/ha): 100%
Lolium rigidum (Efficacy in %) ([5]; application rate 20 g/ha): 80%
Matricaria inodora (Efficacy in %) ([6]; application rate 20 g/ha): 100%
Pharbitis purpurea (Efficacy in %) ([7]; application rate 20 g/ha): 100%
Polygonum convolvulus (Efficacy in %) ([8]; application rate 20 g/ha): 100%
Setaria viridis (Efficacy in %) ([9]; application rate 20 g/ha): 100%
Veronica persica (Efficacy in %) ([10]; application rate 20 g/ha): 100%
Viola tricolor (Efficacy in %) ([11]; application rate 20 g/ha): 100%
Oryza sativa (Efficacy in %) ([12]; application rate 20 g/ha): 0%
Triticum aestivum (Efficacy in %) ([13]; application rate 5 g/ha): 20%
Zea mays (Efficacy in %) ([14]; application rate 5 g/ha): 20%
Digitaria sanguinalis (Efficacy in %) [15]: 100%

CC(Sc1cc(-n2c(=O)cc(C(F)(F)F)n(C)c2=O)c(F)cc1Cl)C(=O)OCCC(N)=O (stereo not drawn) [I.1-151]
Abutilon theophrasti (Efficacy in %) ([1]; application rate 80 g/ha): 100%
Alopecurus myosuroides (Efficacy in %) ([2]; application rate 80 g/ha): 90%
Amaranthus retroflexus (Efficacy in %) ([3]; application rate 80 g/ha): 100%
Echinochloa crus-galli (Efficacy in %) ([4]; application rate 80 g/ha): 100%
Matricaria inodora (Efficacy in %) ([6]; application rate 80 g/ha): 100%
Pharbitis purpurea (Efficacy in %) ([7]; application rate 80 g/ha): 100%
Polygonum convolvulus (Efficacy in %) ([8]; application rate 80 g/ha): 100%
Setaria viridis (Efficacy in %) ([9]; application rate 80 g/ha): 100%
Stellaria media (Efficacy in %) ([16]; application rate 80 g/ha): 90%
Veronica persica (Efficacy in %) ([10]; application rate 80 g/ha): 100%
Viola tricolor (Efficacy in %) ([11]; application rate 80 g/ha): 100%
Oryza sativa (Efficacy in %) ([12]; application rate 20 g/ha): 10%
Triticum aestivum (Efficacy in %) ([13]; application rate 80 g/ha): 20%
Zea mays (Efficacy in %) ([14]; application rate 5 g/ha): 20%
Abutilon theophrasti (Efficacy in %) [17]: 100%
Amaranthus retroflexus (Efficacy in %) ([18]; application rate 80 g/ha): 100%
Avena fatua (Efficacy in %) [19]: 90%
Echinochloa crus-galli (Efficacy in %) [20]: 100%
Hordeum murinum (Efficacy in %) [21]: 80%
Lolium rigidum (Efficacy in %) [22]: 90%
Pharbitis purpurea (Efficacy in %) [23]: 100%
Polygonum convolvulus (Efficacy in %) [24]: 100%
Setaria viridis (Efficacy in %) [25]: 100%
Stellaria media (Efficacy in %) [26]: 100%
Veronica persica (Efficacy in %) [27]: 100%
Viola tricolor (Efficacy in %) [28]: 100%
Matricaria inodora (Efficacy in %) [29]: 100%

CC(Sc1cc(-n2c(=O)cc(C(F)(F)F)n(C)c2=O)c(F)cc1Cl)C(=O)OCCC(=O)N(C)C (stereo not drawn) [I.1-231]
Abutilon theophrasti (Efficacy in %) ([1]; application rate 20 g/ha): 100%
Amaranthus retroflexus (Efficacy in %) ([3]; application rate 20 g/ha): 100%
Echinochloa crus-galli (Efficacy in %) ([4]; application rate 20 g/ha): 100%
Matricaria inodora (Efficacy in %) ([6]; application rate 20 g/ha): 100%
Pharbitis purpurea (Efficacy in %) ([7]; application rate 20 g/ha): 100%
Polygonum convolvulus (Efficacy in %) ([8]; application rate 20 g/ha): 100%
Setaria viridis (Efficacy in %) ([9]; application rate 20 g/ha): 100%
Stellaria media (Efficacy in %) ([16]; application rate 20 g/ha): 100%
Veronica persica (Efficacy in %) ([10]; application rate 20 g/ha): 100%
Viola tricolor (Efficacy in %) ([11]; application rate 20 g/ha): 100%
Oryza sativa (Efficacy in %) ([12]; application rate 5 g/ha): 10%
Triticum aestivum (Efficacy in %) ([13]; application rate 5 g/ha): 20%
Zea mays (Efficacy in %) ([14]; application rate 5 g/ha): 20%
Digitaria sanguinalis (Efficacy in %) [15]: 100%

CC(Sc1cc(-n2c(=O)cc(C(F)(F)F)n(C)c2=O)c(F)cc1Cl)C(=O)OCCC(=O)O (stereo not drawn) [I.1-1]
Abutilon theophrasti (Efficacy in %) ([1]; application rate 80 g/ha): 100%
Amaranthus retroflexus (Efficacy in %) ([3]; application rate 20 g/ha): 100%
Echinochloa crus-galli (Efficacy in %) ([4]; application rate 80 g/ha): 100%
Lolium rigidum (Efficacy in %) ([5]; application rate 80 g/ha): 80%
Matricaria inodora (Efficacy in %) ([6]; application rate 80 g/ha): 100%
Pharbitis purpurea (Efficacy in %) ([7]; application rate 80 g/ha): 100%
Polygonum convolvulus (Efficacy in %) ([8]; application rate 80 g/ha): 100%
Setaria viridis (Efficacy in %) ([9]; application rate 80 g/ha): 100%
Stellaria media (Efficacy in %) ([16]; application rate 80 g/ha): 100%
Veronica persica (Efficacy in %) ([10]; application rate 80 g/ha): 100%
Viola tricolor (Efficacy in %) ([11]; application rate 80 g/ha): 100%
Triticum aestivum (Efficacy in %) ([13]; application rate 80 g/ha): 20%
Zea mays (Efficacy in %) ([14]; application rate 5 g/ha): 10%
Abutilon theophrasti (Efficacy in %) [17]: 100%
Alopecurus myosuroides (Efficacy in %) [30]: 100%
Amaranthus retroflexus (Efficacy in %) ([18]; application rate 20 g/ha): 100%
Echinochloa crus-galli (Efficacy in %) [20]: 100%
Hordeum murinum (Efficacy in %) [21]: 90%
Lolium rigidum (Efficacy in %) [22]: 100%
Pharbitis purpurea (Efficacy in %) [23]: 100%
Polygonum convolvulus (Efficacy in %) [24]: 100%
Setaria viridis (Efficacy in %) [25]: 100%
Stellaria media (Efficacy in %) [26]: 100%
Veronica persica (Efficacy in %) [27]: 100%
Viola tricolor (Efficacy in %) [28]: 100%
Matricaria inodora (Efficacy in %) [29]: 100%

CCCOC(=O)CCOC(=O)C(CC)Sc1cc(-n2c(=O)cc(C(F)(F)F)n(C)c2=O)c(F)cc1Cl (stereo not drawn) [I.2-8]
Abutilon theophrasti (Efficacy in %) ([1]; application rate 20 g/ha): 100%
Amaranthus retroflexus (Efficacy in %) ([3]; application rate 20 g/ha): 100%
Echinochloa crus-galli (Efficacy in %) ([4]; application rate 20 g/ha): 100%
Matricaria inodora (Efficacy in %) ([6]; application rate 20 g/ha): 100%
Pharbitis purpurea (Efficacy in %) ([7]; application rate 20 g/ha): 100%
Polygonum convolvulus (Efficacy in %) ([8]; application rate 20 g/ha): 100%
Setaria viridis (Efficacy in %) ([9]; application rate 20 g/ha): 100%
Stellaria media (Efficacy in %) ([16]; application rate 20 g/ha): 100%
Veronica persica (Efficacy in %) ([10]; application rate 20 g/ha): 100%
Viola tricolor (Efficacy in %) ([11]; application rate 20 g/ha): 100%
Oryza sativa (Efficacy in %) ([12]; application rate 20 g/ha): 0%
Triticum aestivum (Efficacy in %) ([13]; application rate 20 g/ha): 0%
Zea mays (Efficacy in %) ([14]; application rate 20 g/ha): 0%
Digitaria sanguinalis (Efficacy in %) [15]: 100%
